Marks after values point to notes of the source that are not given here.
Tests used:
Format in all cases: in vivo
[1] = test system: Botrytis cinerea (the causal agent of tomato Botrytis); assay: Test C: tomato Botrytis, preventive spray on tomato seedlings, visual disease rating; details: tomato Botrytis, preventive spray on tomato seedlings
Outline: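 Test suspension (acetone/water with 250 ppm Trem 014; 200 ppm equivalent to 800 g/ha) sprayed to run-off on tomato seedlings; B. cinerea spores inoculated next day. After 48 h saturated humidity at 20° C then 3 days at 24° C, disease rated visually as % control relative to untreated controls (0–100).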

[2] = test system: Blumeria graminis f. sp. tritici (also known as Erysiphe graminis f. sp. tritici, the causal agent of wheat powdery mildew); assay: Test D: wheat powdery mildew, preventive spray on wheat seedlings, visual disease rating; details: wheat powdery mildew, preventive spray on wheat seedlings
Outline: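 Compound suspended in acetone/water (50/50) with 250 ppm Trem 014 and sprayed to run-off on wheat seedlings (200 ppm ≈ 800 g/ha), then inoculated next day with spore dust. Disease rated visually after 8 days at 20 °C as % control relative to untreated plants (0-100).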

[3] = test system: Puccinia recondite f. sp. tritici (the causal agent of wheat leaf rust); assay: Test A: wheat leaf rust, preventive spray on wheat seedlings, visual disease rating; details: wheat leaf rust, preventive spray on wheat seedlings
Outline: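 Wheat seedlings were sprayed to run-off with compound suspended in acetone/water containing 250 ppm Trem 014 (200 ppm ≈ 800 g/ha; some at 40 ppm). Puccinia recondite spores were inoculated the next day. Plants were held 24 h saturated at 20° C, then 7 days at 20° C, and disease control was rated visually on a 0–100 scale against controls.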

[4] = test system: Septoria tritici (the causal agent of wheat leaf blotch); assay: Test B: wheat leaf blotch, preventive spray on wheat seedlings, visual disease rating; details: wheat leaf blotch, preventive spray on wheat seedlings
Outline: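 Wheat seedlings sprayed to run-off with compound suspension (acetone/water with 250 ppm Trem 014; 200 ppm ≈ 800 g/ha, some at 40 ppm), inoculated next day with Septoria tritici spores. 48 h saturated humidity at 24 °C, then 19 days at 20 °C; visual rating, 100 = full control.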

[5] = no asterisk (standard test suspension concentration, not 40 ppm)
[6] = asterisk: 40 ppm test suspension

Structure (SMILES)	Test C rating (100 = 100% disease control, 0 = no disease control relative to the controls) [1, 5]	Test D rating (100 = 100% disease control, 0 = no disease control relative to the controls) [2, 5]	Test A rating (100 = 100% disease control, 0 = no disease control relative to the controls) [3, 5]	Test B rating (100 = 100% disease control, 0 = no disease control relative to the controls) [4, 5]	Test C rating (100 = 100% disease control, 0 = no disease control relative to the controls) [1, 6]	Test D rating (100 = 100% disease control, 0 = no disease control relative to the controls) [2, 6]	Test A rating (100 = 100% disease control, 0 = no disease control relative to the controls) [3, 6]	Test B rating (100 = 100% disease control, 0 = no disease control relative to the controls) [4, 6]
OC(c1ccc(Cl)cc1)c1c(Cl)nc(Cl)n1-c1ccc(F)cc1Cl (single isomer, unassigned) [compound 48]	100%	85%	100%	100%				
Cc1cc(F)ccc1C(O)c1c(Cl)nc(Cl)n1-c1ccc(F)cc1Cl (single isomer, unassigned) [compound 50]	100%	90%	100%	100%				
Cc1cc(F)ccc1C(O)c1c(Cl)nc(Cl)n1-c1ccc(F)cc1Cl (single isomer, unassigned) [compound 51]	99%	47%	100%	100%				
OC(c1ccc(F)cc1F)c1c(Cl)nc(Cl)n1-c1ccc(F)cc1F (single isomer, unassigned) [compound 78]	99%	82%	100%	100%				
OC(c1ccc(F)cc1F)c1c(Cl)nc(Cl)n1-c1ccc(F)cc1F (single isomer, unassigned) [compound 79]	98%	0%	100%	100%				
Cc1cc(F)ccc1C(O)c1c(Cl)nc(Cl)n1-c1ccc(Cl)cc1Cl (single isomer, unassigned) [compound 84]	0%	0%	96%	100%				
Cc1cc(F)ccc1C(O)c1c(Cl)nc(Cl)n1-c1ccc(Cl)cc1Cl (single isomer, unassigned) [compound 85]	88%	87%	99%	100%				
OC(c1ccc(Cl)cc1)c1c(Cl)nc(Cl)n1-c1ccc(Cl)cc1Cl (single isomer, unassigned) [compound 86]	73%	56%	96%	100%				
OC(c1ccc(Cl)cc1)c1c(Cl)nc(Cl)n1-c1ccc(Cl)cc1Cl (single isomer, unassigned) [compound 87]	60%	48%	91%	100%				
OC(c1ccc(F)cc1Cl)c1c(Cl)ncn1-c1c(F)cccc1F (stereo not drawn) [Compound 1, 4-chloro-α-(2-chloro-4-fluorophenyl)-1-(2,6-difluorophenyl)-1H-imidazole-5-methanol]	99%	99%	100%	100%				
OC(c1ccc(F)cc1F)c1c(Cl)ncn1-c1ccc(F)cc1Cl (stereo not drawn) [Compound 2, 4-chloro-1-(2-chloro-4-fluorophenyl)-α-(2,4-difluorophenyl)-1H-imidazole-5-methanol]	100%	81%	100%	100%				
Cc1ncc(C(O)c2ccc(F)cc2Cl)n1-c1c(F)cc(F)cc1F (stereo not drawn) [Compound 167, α-(2-chloro-4-fluorophenyl)-2-methyl-1-(2,4,6-trifluorophenyl)-1H-imidazole-5-methanol]	33%	0%	100%	100%				
Cc1nc(Br)c(C(O)c2ccc(F)cc2Cl)n1-c1c(F)cc(F)cc1F (stereo not drawn) [Compound 168, 4-bromo-α-(2-chloro-4-fluorophenyl)-2-methyl-1-(2,4,6-trifluorophenyl)-1H-imidazole-5-methanol]					99* %	56* %	100* %	100* %
COc1ccc(C(O)c2c(Br)ncn2-c2c(F)cccc2F)c(Cl)c1 (stereo not drawn) [Compound 274, 4-bromo-1-(2,6-difluorophenyl)-α-(2-chloro-4-methoxyphenyl)-1H-imidazole-5-methanol]	0%	64%	100%	97%				
COc1ccc(C(O)c2c(Br)nc(Cl)n2-c2c(F)cccc2F)c(Cl)c1 (stereo not drawn) [Compound 287, 4-bromo-2-chloro-α-(2-chloro-4-methoxyphenyl)-1-(2,6-difluorophenyl)-1H-imidazole-5-methanol]					100* %	97* %	100* %	100* %
OC(c1ccc(F)cc1Cl)c1c(Cl)nc(Cl)n1-c1c(F)cc(F)cc1Cl (stereo not shown) [compound 42]	100%	100%	100%	100%				
Cc1cc(F)ccc1C(O)c1c(Cl)nc(Cl)n1-c1c(F)cccc1F (stereo not shown) [compound 43]	100%	100%	100%	100%				
OC(c1ccc(Cl)cc1)c1c(Cl)nc(Cl)n1-c1c(F)cc(F)cc1Br (stereo not shown) [compound 44]	99%	88%	99%	100%				
Cc1nc(Cl)n(-c2ccc(F)cc2Cl)c1C(O)c1c(F)cccc1F (stereo not shown) [compound 46]	100%	100%	100%	100%				
OC(c1c(F)cc(F)cc1F)c1c(Cl)nc(Cl)n1-c1ccc(F)cc1Cl (stereo not shown) [compound 49]	100%	100%	100%	100%				
Cc1ccc(C(O)c2c(Br)nc(C)n2-c2c(F)cccc2F)c(F)c1 (stereo not shown) [compound 52]					37* %	35-* %	99* %	100* %
COc1ccc(C(O)c2c(Br)nc(C)n2-c2c(F)cccc2F)c(F)c1 (stereo not shown) [compound 53]					99* %	43* %	100* %	100* %
